Test results: patent publication US20120276064A1, “METHODS AND COMPOSITIONS FOR REJUVENATION AND EXPANSION OF STEM CELLS” (priority 2011, published 2012)

Legend:
[1] = tested on: tibialis anterior muscle of notexin-injured old mice; experiment: In vivo force measurements after systemic SB202190 administration; set-up: species or system mouse; conditions: 5 mg/kg IP, 5 daily injections starting one day after notexin injury, two months post-injury
Experimental: Systemic SB202190 administration. Old mice were systemically administered SB202190 (5 mg/kg body weight in 0.9% NaCl/H2O) with five daily doses by IP injection starting at one day after NTX injury.
In vivo force measurements. Force measurements were performed on tibialis anterior (TA) muscles in vivo in anesthetized mice, as previously described. The hindlimb was shaved and fixed to a frame to immobilize it without compromising the blood supply to the leg. The animal was warmed on an isothermal pad and by heat lamp. A small incision was placed in the skin directly above the TA muscle. The distal tendon was sutured to a thin metal hook and then attached to a force transducer (300C-LR; Aurora Scientific, Aurora, Ontario). Distal tendons from all front lower hindlimb muscles other than TA were cut, leaving TA isolated during attachment to the force transducer. The muscles and tendons were kept moist by periodic wetting with saline (0.9% sodium chloride) solution. […] Muscle force and synchronization pulses were recorded for 2 seconds immediately prior to the stimulation and 3 seconds after the end of the stimulation. […] Data were collected with a PCI-6251 data acquisition card (National Instruments, Austin, Tex.) and analyzed in Matlab. Specific force values were calculated by normalizing the force measurements by the muscle physiological cross-sectional area (PCSA), as described previously: […]

[2] = tested on: functional MuSCs; experiment: Limiting dilution analysis and model prediction of functional MuSCs; set-up: species or system mouse
From the text: Limiting dilution analysis and model prediction. To calculate the effective number of functional MuSCs in any transplanted cell population, the transplant engraftment efficiency was related to the number of cells transplanted (across a range of transplanted cell numbers) using an exponential stem-cell limiting dilution model:
% engraftment=100%·[1-exp [(βsample)·(# cells transplantedsample)] [eqn. 1]
where β is an exponential coefficient fit from experimental data. This model fit well to experimental data from a variety of cell conditions (R^2=0.89-1.00; see FIG. 16C). Using this model, the number of functional MuSCs (e.g. defined as equivalent to freshly isolated young MuSCs) within any given population can be calculated:
# Functional MuSCssample=(βSample/βYng,Fresh)˜(# cellssample). [eqn. 2]
The number of functional MuSCs arising from the progeny of each MuSC initially seeded in the cell culture experiments can be predicted by taking into account the measured cell proliferation in culture (see FIG. 2D). The transplant engraftment percentage of the cell culture progeny from any starting MuSC cell number can be predicted using the measured cell proliferation data and the fit exponential model parameter β:
Predicted % engraftment=100%·[1-exp [(βsample)·(starting cell #)·(proliferation fold-changesample)]]. [Eqn. 3]

[3] = tested on: myogenin protein expression in young MuSCs; experiment: Myogenin immunofluorescence analysis of hydrogel-cultured MuSCs; assay type: cell-based, mouse; conditions: soft hydrogel, 10 μM, one week, compared to control
Experimental: Myogenin immunofluorescence analysis. MuSCs from young mice were isolated and cultured on 12 kPa hydrogels with either 0.1% DMSO control or 10 μM SB202190. After one week of culture, cells were fixed with 0.5% paraformaldehyde in PBS. Fixed cells were blocked with 20% goat serum and 0.5% Triton X100 in PBS. Cells were stained with anti-myogenin antibody (Santa Cruz Biotechnology, Santa Cruz, Calif.) and then an AlexaFluor594-conjugated secondary antibody (Invitrogen). Nuclei were stained with Topro3 (Invitrogen)the Immunofluorescence images were acquired using a LSM510 laser-scanning confocal microscope (Carl Zeiss Microimaging) with a Plan NeoFluar 20x/0.75NA objective. Digital images were captured using LSM510 software. Images were composed and edited in Photoshop software (Adobe). Background was reduced and contrast was enhanced equivalently across all images of the same stain. Nuclear regions were identified by Topro3 staining using MetaMorph software (Molecular Devices, Sunnyvale, Calif.). Within each nuclear region, the myogenin intensity was integrated using MetaMorph software. Nuclear myogenin intensities from each condition were plotted in a log-scale histogram to establish a threshold defining myogenin-positive cells.

[4] = tested on: p21, Myogenin, Pax7 transcripts in MuSCs; experiment: Quantitative real-time PCR gene expression in hydrogel-cultured MuSCs; assay type: cell-based, mouse; conditions: old MuSCs, soft hydrogel, 10 μM, one week
Experimental: MuSC culture and treatment. Following isolation, MuSCs were pelleted and resuspended into myogenic cell culture medium containing DMEM/F10 (50:50), 15% FBS, 2.5 ng/ml bFGF, and 1% penicillin/streptomycin. MuSCs were seeded at 1000 cells per well (24-well plate size wells, 2.0 cm^2 surface area) on laminin-tethered hydrogels of either 12 kPa (soft) or ˜10^6 kPa (rigid) rigidities. Cells were maintained at 37° C. in 5% CO2. Media was changed daily. For proliferation and p38 inhibition studies, the following ligands/inhibitors were supplemented in the myogenic medium and maintained consistently through the experiment: 25 ng/ml Wnt7a (R&D Systems, Minneapolis, Minn.), 25 ng/ml Jagged1-Fc (R&D Systems, Minneapolis, Minn.), 10 nM tautomycetin (PP1 inhibitor; Tocris Bioscience, Ellisville, Mo.), 10 μM SB202190 or 10 μM SB203580 (p38 inhibitors; EMD Chemicals, Gibbstown, N.J.), 1 μM SB431542 (ALK4/5/7 inhibitor; Tocris Bioscience), or 0.1% DMSO carrier control. All MuSC cell culture assays and transplantations were performed after one week of culture unless noted otherwise.
Quantitative real-time PCR. RNA was isolated from freshly isolated and cultured cells using the RNeasy Micro kit (Qiagen, Valencia, Calif.). Total RNA from each sample was reverse transcribed using the High Capacity cDNA RT kit (Applied Biosystems, Carlsbad, Calif.). cDNA was subjected to real-time PCR using a SYBR Green PCR Master Mix (Applied Biosystems). Real-time PCR was performed using an ABI 7900HT Real Time PCR system and software (Applied Biosystems). Samples were cycled at 95° C. for 10 min and then 40 cycles of 95° C. for 15 sec and 60° C. for 1 min. To quantify relative transcript levels, the 2^−ΔΔCt method was used, and freshly isolated young MuSCs were used as reference value (plotted as 1 in all graphs). Gapdh was used as a normalizing gene. Primer sequences for Gapdh, p21, myogenin, and Pax7 were obtained from literature or using NIH Primer3.

Oc1ccc(-c2nc(-c3ccncc3)c(-c3ccc(F)cc3)[nH]2)cc1 [SB202190]
Recovery of twitch and tetanus forces [1]: aided recovery | Proportion of functional MuSCs ([2]; old MuSCs on soft hydrogels with SB treatment, limiting dilution model): 9% | Predicted transplant engraftment of the culture progeny of 10 old MuSCs ([2]; old MuSCs treated with SB, model prediction): 76% | Increase in absolute number of functional stem cells relative to freshly isolated old MuSCs ([2]; old MuSCs, soft hydrogel + SB, one week, mathematical modeling): 7 fold | Improvement in the proportion of functional MuSCs ([2]; old MuSCs, soft hydrogel with vs without SB, limiting dilution model): 10 fold | Percentage of myogenin+ cells [3]: greatly diminished | Transcription of the MuSC transcription factor Pax7 [4]: increased | Transcription of the cell cycle inhibitor p21 [4]: decreased | Transcription of the commitment marker Myogenin [4]: decreased
